Laboratory results taken from patent US9867799B2, “Diethyl-[6-(4-hydroxycarbamoyl-phenyl-carbamoyloxy-methyl)-naphthalen-2-yl-methyl]-ammonium chloride for use in the treatment of muscular dystrophy” (ITALFARMACO S.P.A., priority 2012, dated 2018).

Assays:
[1] = Micronucleus test in vivo (genotoxicity)
[2] = test system: children with Systemic Onset Juvenile Idiopathic Arthritis; details: 1.5 mg/kg/day for twelve weeks; cited from earlier work
mouse lymphoma = test: Mouse lymphoma assay in vitro (genotoxicity); type: cell-based
juvenile animals = test: Juvenile animal toxicity (development and reproductive performance); type: in vivo; details: 60 mg/kg/day
[3] = UDS test in vivo (genotoxicity)
dogs, rats and monkeys = test: Repeated dose toxicity studies; type: in vivo; details: oral daily doses up to nine consecutive months
Experimental: To date more than 500 patients (including 29 children) have been treated with Givinostat. Repeated dose toxicity studies were carried out in dogs, rats and monkeys. Oral daily doses of the drug were administered up to nine consecutive months. […] The “no adverse effect levels” (NOAEL) ranged from 10 to 25 mg/kg/day depending on the animal species and the duration of treatment.

[4] = Chromosomal aberration assay in vitro (genotoxicity); type: cell-based

Substance: diethyl-[6-(4-hydroxycarbamoyl-phenyl-carbamoyloxy-methyl)-naphthalen-2-yl-methyl]-ammonium chloride [Givinostat]
- genotoxic effect [1]: No genotoxic effect
- ACR Pedi 30, 50 and 70 improvement [2]: approximately 70%
- adverse effects [2]: only a limited number of mild or moderate but short lasting, adverse effects
- genotoxic effect (mouse lymphoma): No genotoxic effect
- behavioural and physical development and reproductive performance of pups (juvenile animals): did not affect the behavioural and physical development and reproductive performance of pups
- genotoxic effect [3]: No genotoxic effect
- tolerability / overt toxicity (dogs, rats and monkeys): well tolerated with no overt toxicity at high doses
- genotoxic effect [4]: No genotoxic effect
